Assay results from the pKa sets of Baltruschat and Czodrowski (2020).

Row | pKa | SMILES
1 | 4.39 | O=C([O-])c1ccccc1Nc1ccc(CCc2ccc(Cl)c(Cl)c2)cc1
2 | 3.86 | Cc1c(CC(=O)[O-])c2cccnc2n1S(=O)(=O)c1ccc(Cl)cc1
3 | 9.01 | CC(C)[NH+](CCc1c(C(C)(C)O)[nH]c2ccccc12)Cc1ccc(CCC(=O)N=O)cc1
4 | 8.2 | O=S(=O)(c1ccccc1)N(CC(F)(F)F)c1ccc(C(O)(C(F)(F)F)C(F)(F)F)cc1
5 | 10.9 | COc1ccc(CNC(=O)[C@@H](NC(=O)[C@H](Cc2ccc(OC)c(OC)c2)NC(=O)Cc2cccc(Oc3ccccc3)c2)C(C)C)c(O)c1
6 | 8.9 | Clc1ccc(-c2ccc(-c3ccnc(N4CC[NH2+]CC4)n3)s2)cc1
7 | 3 | CCN1c2ccc(C#N)cc2N=C(c2ccc(C(=O)[O-])c(F)c2)c2cc3c(cc21)C(C)(C)CCC3(C)C
8 | 8.2 | CC#CCn1c(N2CC[NH2+]CC2)c(C#N)c2ncn(CC(=O)c3cccc(OC)c3)c(=O)c21
9 | 9.1 | COc1ccc(-c2ccc(C(=O)Nc3ccc4c(c3)CCC(C[NH+](C)C)C4)cc2)cc1 (centres undefined)
10 | 7.17 | COc1cc(CN(CC(=O)NCc2ccccc2Cl)S(=O)(=O)c2ccc(CN3CC[NH+](C)CC3)cc2)ccc1OCC(C)C
11 | 9.3 | O=C1NC(=O)C(c2c[nH]c3ccccc23)=C1c1nc(N2CCOCC2)nc2ccccc12
12 | 3.6 | CC(=O)N1CCN(c2ccc(OCc3cc4cnc(C#N)nc4n3CCC3CCC(F)(F)CC3)cc2)CC1
13 | 6.8 | CCc1ccc(-c2cnc(C)nc2NC2CCCC2)cc1
14 | 7.9 | C[NH+](CCC(=O)N1CCN(c2ccc(F)c(F)c2)CC1)CCC1c2ccccc2Oc2ccccc21
15 | 8.2 | CC(C)COC(=O)Nc1ccc(-c2cnc3c(-c4ccc(N5CC[NH+](C)CC5)cc4)cnn3c2N)cc1
16 | 4.27 | CNC(=O)c1ccccc1Nc1nc(Nc2ccc(N3CCOCC3)cc2OC)ncc1Cl
17 | 4.1 | O=C(Nc1cccc2cnccc12)c1ccc(-c2ccccc2)cc1
18 | 8.3 | Cc1ccc(-c2ccc3c(c2)C=C(C(=O)Nc2ccc(C[NH+](C)C4CCOCC4)cc2)CCC3)cc1
19 | 9 | Cc1nc2cccc(C(F)(F)F)c2c(=O)n1-c1ccc(OC2CC[NH+](C3CCC3)CC2)cc1
20 | 7.24 | CC(C)Cn1cnc2c(N)nc3ccccc3c21
21 | 5.2 | Cn1c(N)nc2ccccc2c1=O
22 | 8.66 | CC(C)[NH+](CCc1c[nH]c2ccccc12)Cc1ccc(CCC(=O)N=O)cc1
23 | 4.28 | Cc1nc(N2CCN(Cc3ccccc3)C2=O)sc1C(=O)NCc1ccccn1
24 | 4.63 | Cc1ccc(-c2ncc(Cl)cc2-c2ccc(S(C)(=O)=O)cc2)cn1
25 | 4.2 | O=C([O-])c1ccc(NC(=O)c2cn(-c3ccccc3)nc2-c2ccc(Cl)cc2)cc1

Second part, the compound before the results:

Row | SMILES | pKa
26 | O=C([O-])COc1ccc(Cl)cc1C1CCCCC1 | 3.51
27 | Brc1ccc(C2CN3C=CSC3=[NH+]2)cc1 (centres undefined) | 8.55
28 | CCCCC[C@H](O)CC[C@@H]1[C@H]2Cc3cccc(OCC(=O)[O-])c3C[C@H]2C[C@H]1O | 3.37
29 | Cc1ncccc1Oc1ncnc(OC2CCN(C(=O)OC(C)C)CC2)c1C | 4.18
30 | CNC(=O)c1c(NCC2CCC3(CCC3)CC2)nc(C#N)nc1OCC1CC[NH+](C)CC1 | 10.7
31 | Clc1ccc(OCc2nn[n-]n2)c(C2CCCCC2)c1 | 3.87
32 | CN1C(=O)N(C[C@H](C(=O)NO)[C@@H](CC2CCCC2)C(=O)N2CCCCC2)C(=O)C1(C)C | 9.01
33 | CC(C)(C)Cn1c(Cc2ccc(NS(N)(=O)=O)cc2)cc2cnc(C#N)nc21 | 9.3
34 | CS(=O)(=O)Nn1c(=O)[nH]c2cc(C(F)(F)F)ccc2c1=O | 8.35
35 | CC(C)(C)Cn1c(CN2C(=O)CC3(CC[NH2+]CC3)C2=O)cc2cnc(C#N)nc21 | 9.2
36 | CCOc1ccc2nc(S(N)(=O)=O)sc2c1 | 8.36
37 | CC(C)(C)c1ccc(S(=O)(=O)Nc2ccc(Cl)cc2C(=O)c2cc[n+]([O-])cc2)cc1 | 6.87
38 | Fc1ccc([C@H]2CC[NH2+]C[C@@H]2COc2ccc3c(c2)OCO3)cc1 | 9.5
39 | Cc1ccc(Nc2c(F)cccc2Cl)c(CC(=O)[O-])c1 | 4.2
40 | CC(C)n1c(/C=C/[C@H](O)C[C@H](O)CC(=O)[O-])c(-c2ccc(F)cc2)c2ccccc21 | 4.5
41 | O=C([O-])COc1ccc(Cl)cc1C1CCCCCC1 | 3.48
42 | COc1cccc(OC)c1-c1ccc(C[C@H](NC(=O)c2c(Cl)cccc2Cl)C(=O)[O-])cc1 | 3.41
43 | O=NC(=O)CCc1ccc(C[NH2+]CC23CC4CC(CC(C4)C2)C3)cc1 | 8.85
44 | N#Cc1ncc2cc(COc3cccc(CCC(=O)[O-])c3)n(CCC3CCCCC3)c2n1 | 4.5
